# Assay results published in US20110229499A1, “METHOD FOR TREATMENT OF VASCULAR HYPERPERMEABILITY” (priority 2010, published 2011).
# Tested on: Rat lung microvascular endothelial cells
# Assay: Adherens junction damage, beta catenin immunofluorescence
# Assay type: cell-based
# Conditions: SCF 100 ng/ml pre-treatment 1 hour
# Protocol: Rat lung microvascular endothelial cells were grown on fibronectin coated chamber slides in complete MCDB-3 media for 24 hours. The cells were pre-treated with SCF (100 ng/ml) for 1 hour. The cells exposed to shock serum or were transfected with caspase-3 (5 μg/ml) for 60 minutes. Caspase-3 were exposed to TransIT (10 μl/ml) for 15 minutes before exposure to the cells. The cells were washed in PBS, permeabilized with Triton X-100 and fixed with 4% paraformaldehyde. The cells were then washed in PBS, blocked with 2.5% BSA-PBS and exposed to polyclonal antibody against β-catenin overnight at 4° C. The cells were washed, mounted in an antifade-DAPI mountant and visualized utilizing a fluorescent microscope.
substance,measurement,setting,value
"SCF: stem cell factor, a soluble factor (protein) produced by stem cells",caspase-3 mediated adherens junction disruption,caspase-3 5 μg/ml transfected 60 minutes,did not protect
same,shock serum-induced adherens junction disruption,shock serum 60 minutes,showed protection
